From the supplement of paper PMC10307832

Assays:
Assay in all cases: relative viability (nuclei count vs DMSO), 5 days (fraction); higher = more cells survive
[1] = compound: COc1cc(-c2nn([C@H]3CC[C@H](N4CCN(C(C)=O)CC4)CC3)c3ncnc(N)c23)ccc1NC(=O)c1cc2ccccc2n1C + Cc1cc(Nc2cc(N3CCN(C)CC3)nc(Sc3ccc(NC(=O)C4CC4)cc3)n2)n[nH]1 [Tozasertib] (partner 0.1 µM)
In short: (§1)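 For relative viability, nuclei counts in treated wells were divided by those in vehicle wells. Lung cancer cell lines had been pin-tool dosed in 1536-well plates the day after seeding and cultured for 5 days, then fixed and stained in one step (final 0.05% Triton X-100, 1% formaldehyde, 1 ug/ml Hoechst) and imaged at 4×. Doses were one drug alone or a fixed anchor-drug dose plus five library-drug doses (not always all listed) in √10 steps, and values are duplicate-plate medians.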

Midostaurin + Decitabine = compound: CO[C@@H]1[C@H](N(C)C(=O)c2ccccc2)C[C@H]2O[C@]1(C)n1c3ccccc3c3c4c(c5c6ccccc6n2c5c31)C(=O)NC4 [Midostaurin] + Nc1ncn([C@H]2C[C@H](O)[C@@H](CO)O2)c(=O)n1 [Decitabine] (partner 2 µM)
In short: as §1

[2] = compound: COc1cc(-c2nn([C@H]3CC[C@H](N4CCN(C(C)=O)CC4)CC3)c3ncnc(N)c23)ccc1NC(=O)c1cc2ccccc2n1C + O=C(CCCCCCC(=O)Nc1ccccc1)NO [Vorinostat] (partner 1 µM)
In short: as §1

Midostaurin + Crizotinib = compound: CO[C@@H]1[C@H](N(C)C(=O)c2ccccc2)C[C@H]2O[C@]1(C)n1c3ccccc3c3c4c(c5c6ccccc6n2c5c31)C(=O)NC4 [Midostaurin] + C[C@@H](Oc1cc(-c2cnn(C3CCNCC3)c2)cnc1N)c1c(Cl)ccc(F)c1Cl [Crizotinib] (partner 1 µM)
In short: as §1

[3] = compound: COc1cc(-c2nn([C@H]3CC[C@H](N4CCN(C(C)=O)CC4)CC3)c3ncnc(N)c23)ccc1NC(=O)c1cc2ccccc2n1C + CC(C)C[C@H](NC(=O)[C@H](Cc1ccccc1)NC(=O)c1cnccn1)B(O)O [Bortezomib] (partner 0.002 µM)
In short: as §1

Cell Line | relative viability ([1]; first compound 0.0128 µM) | relative viability ([1]; first compound 0.04048 µM) | relative viability ([1]; first compound 0.128 µM) | relative viability ([1]; first compound 1.28 µM) | relative viability (Midostaurin + Decitabine; first compound 0.01 µM) | relative viability (Midostaurin + Decitabine; first compound 0.03162 µM) | relative viability (Midostaurin + Decitabine; first compound 0.1 µM) | relative viability (Midostaurin + Decitabine; first compound 0.3162 µM) | relative viability ([2]; first compound 0.0128 µM) | relative viability ([2]; first compound 0.04048 µM) | relative viability ([2]; first compound 0.128 µM) | relative viability ([2]; first compound 1.28 µM) | relative viability (Midostaurin + Crizotinib; first compound 0.01 µM) | relative viability (Midostaurin + Crizotinib; first compound 0.03162 µM) | relative viability (Midostaurin + Crizotinib; first compound 0.1 µM) | relative viability (Midostaurin + Crizotinib; first compound 0.3162 µM) | relative viability ([3]; first compound 0.0128 µM) | relative viability ([3]; first compound 0.04048 µM) | relative viability ([3]; first compound 0.128 µM) | relative viability ([3]; first compound 1.28 µM)
NCI-H23 | 0.359 | 0.444 | 0.309 | 0.266 | 0.302 | 0.368 | 0.308 | 0.249 | 0.734 | 0.51 | 0.541 | 0.519 | 0.479 | 0.512 | 0.355 | 0.41 | 1.06 | 0.682 | 1.18 | 0.883
HCC-366 | 0.114 | 0.0717 | 0.0637 | 0.0555 | 0.383 | 0.364 | 0.325 | 0.298 | 0.432 | 0.361 | 0.346 | 0.451 | 0.504 | 0.505 | 0.445 | 0.522 | 0.951 | 0.859 | 1.09 | 0.849
EMC-BAC-2 | 0.276 | 0.377 | 0.331 | 0.273 | 0.922 | 0.933 | 0.897 | 0.818 | 0.466 | 0.602 | 0.418 | 0.504 | 0.704 | 0.754 | 0.647 | 0.696 | 1.03 | 1.12 | 1.04 | 1.12
NCI-H2405 | 0.741 | 0.601 | 0.656 | 0.391 | 0.721 | 0.8 | 0.774 | 0.778 | 1.01 | 0.886 | 0.834 | 0.374 | 0.787 | 0.825 | 0.797 | 0.842 | 0.939 |  | 0.936 | 0.668
EPLC-272H | 0.38 |  | 0.235 | 0.19 | 0.35 | 0.332 | 0.356 | 0.345 | 0.357 | 0.345 | 0.62 | 0.457 | 0.875 | 0.998 | 1.07 | 0.926 | 0.993 | 0.933 | 0.952 | 0.902
NCI-H1915 | 0.443 | 0.44 | 0.384 | 0.317 | 0.264 | 0.26 | 0.255 | 0.255 | 0.651 | 0.577 | 0.507 | 0.44 | 0.889 | 0.889 | 0.979 | 0.94 | 1.05 | 1.03 | 0.931 | 0.929
NCI-H596 | 0.972 | 1.17 | 0.872 | 0.541 | 1.1 | 1.11 | 1.07 | 1.12 | 0.779 | 0.703 | 0.629 | 0.611 | 0.957 | 1.12 | 1.11 | 1.1 | 1.03 | 1.31 | 0.908 | 0.954
NCI-H322M | 0.509 | 0.472 | 0.445 | 0.341 | 0.638 | 0.673 | 0.651 | 0.715 | 0.868 | 0.931 | 0.718 | 0.745 | 0.982 | 0.948 | 0.912 | 0.905 | 1.23 | 1.52 | 1.17 | 1.17
NCI-H647 | 0.219 | 0.262 | 0.194 | 0.141 | 0.405 | 0.433 | 0.346 | 0.374 | 0.422 | 0.698 | 0.606 | 0.421 | 1.06 | 0.802 | 0.832 | 0.416 | 1.13 | 1.34 | 0.877 | 0.588
NCI-H2085 | 0.827 | 0.867 | 0.728 | 0.372 | 0.54 | 0.525 | 0.607 | 0.523 | 0.83 | 1.17 | 0.764 | 0.759 | 0.769 | 0.805 | 0.814 | 0.582 | 1.05 | 1.06 | 1.12 | 1.14
SW 1573 | 0.201 | 0.108 | 0.175 | 0.148 | 0.52 | 0.741 | 0.524 | 0.476 | 0.805 | 0.735 | 0.817 | 0.723 | 0.704 | 1.01 | 0.782 | 0.631 | 0.956 | 1.11 | 0.98 | 0.8
NCI-H727 | 0.65 |  | 0.581 | 0.477 | 0.88 | 0.911 | 0.925 | 0.932 | 1.35 |  | 1.22 | 1.25 | 0.861 | 0.524 | 0.729 | 0.459 | 0.834 |  | 0.808 | 1.06
NCI-H441 | 0.743 | 0.734 | 0.565 | 0.578 | 0.249 | 0.237 | 0.221 | 0.23 | 0.968 | 0.958 | 0.847 | 0.849 | 0.778 | 0.807 | 0.596 | 0.764 | 0.591 | 0.823 | 0.665 | 0.616
LOU-NH91 | 0.664 | 0.598 | 0.699 | 0.671 | 0.783 | 0.781 | 0.835 | 0.798 | 0.987 | 0.921 | 0.909 | 0.858 | 0.753 | 0.748 | 0.758 | 0.721 | 0.498 | 0.522 | 0.515 | 0.518
